Like-named read-outs stand apart in the source and are kept apart here.
Assays:
LU0743B organoid (Lung) = experiment: PDXO viability assay (Cell Titre Glo); assay type: cell-based; conditions: 120 h, 5 days of treatment
Experimental: (§1) In cancer research, natural cell characteristics and architectures can often be more closely mimicked by 3D cell models than monolayer cultures. The comparative efficacy of compound of structural formula I was explored in 2D and 3D culture systems using the soft agar colony formation assay and PDXO cultures. In each case, viability of the culture was assessed after treatment with compound of structural formula I.
(§2) Viability Assay in Patient-Derived Xenograft Organoid Cell Lines (PDXO). To mimic more closely cancer tissue-like architecture, PDX organoids derived from patient-derived xenograft tissue were utilized. Viability assay was performed in 10 PDXO models, and the IC50 values were assessed after 5 days of treatment with compound of structural formula I using Cell Titre Glo.

[1] = tested on: CR1489B organoid (Colorectal); experiment: PDXO viability assay (Cell Titre Glo); assay type: cell-based; conditions: 120 h, 5 days of treatment
Experimental: as §1, §2

[2] = tested on: CR5088B organoid (Colorectal); experiment: PDXO viability assay (Cell Titre Glo); assay type: cell-based; conditions: 120 h, 5 days of treatment
Experimental: as §1, §2

10 PDXO models = experiment: PDXO viability assay (Cell Titre Glo); assay type: cell-based; conditions: all of the organoids tested, except CR6863B
Experimental: as §1, §2

[3] = tested on: BL5001B organoid (Bladder); experiment: PDXO viability assay (Cell Titre Glo); assay type: cell-based; conditions: 120 h, 5 days of treatment
Experimental: as §1, §2

[4] = tested on: CR6863B organoid (Colorectal); experiment: PDXO viability assay (Cell Titre Glo); assay type: cell-based; conditions: 120 h, 5 days of treatment
Experimental: as §1, §2

[5] = tested on: ES6470B organoid (Esophageal); experiment: PDXO viability assay (Cell Titre Glo); assay type: cell-based; conditions: 120 h, 5 days of treatment
Experimental: as §1, §2

LU6800B organoid (Lung) = experiment: PDXO viability assay (Cell Titre Glo); assay type: cell-based; conditions: 120 h, 5 days of treatment
Experimental: as §1, §2

LU11873B organoid (Lung) = experiment: PDXO viability assay (Cell Titre Glo); assay type: cell-based; conditions: 120 h, 5 days of treatment
Experimental: as §1, §2

LU11693B organoid (Lung) = experiment: PDXO viability assay (Cell Titre Glo); assay type: cell-based; conditions: 120 h, 5 days of treatment
Experimental: as §1, §2

[6] = tested on: GA6891B organoid (Gastric); experiment: PDXO viability assay (Cell Titre Glo); assay type: cell-based; conditions: 120 h, 5 days of treatment
Experimental: as §1, §2

HT29 cells = experiment: Soft agar colony formation assay, 3D vs 2D; assay type: cell-based; conditions: for IC50: Homo sapiens, HT-29, HT29, Colorectal
Experimental: as §1
(§3) Soft Agar Colony Formation Assay. Soft agar colony formation assay was performed in 10 cell lines from a variety of tumor types ranging from lung cancers to colorectal and prostate cancers (Pro Quinase Reaction Biology, Project Number: 17262). A complete list of tumor types used in the assay can be found in Table 7.1.

A549 cells = experiment: Soft agar colony formation assay, 3D vs 2D; assay type: cell-based; conditions: for IC50: Homo sapiens, A549, Lung
Experimental: as §1, §3

DU145 cells = experiment: Soft agar colony formation assay, 3D vs 2D; assay type: cell-based; conditions: for IC50: Homo sapiens, DU-145, DU145, Prostate
Experimental: as §1, §3

[7] = tested on: 10 cell lines from a variety of tumor types; experiment: Soft agar colony formation assay (3D colonies); assay type: cell-based; conditions: for IC50: 3D soft agar colonies
Experimental: as §1, §3

[8] = Four-week capsule stability: assay and related substances (HPLC); assay type: physicochemical; conditions: initial (not stored)
Experimental: Methods: Samples were stored (closed) at 40° C. and […] (RH). Appearance, water content, assay and related substances (HPLC) were tested (n=6), sink dissolution.

Apc^Min+/− mice = experiment: ApcMin mouse efficacy model; assay type: in vivo
Experimental: TNK1 upregulation is reported to play a role in the pathogenic process of intestinal barrier disruption in a transgenic mice model of increased TNK1 expression/activation (PMID: 30320600). Therefore, the efficacy of the compound of structural formula I was evaluated in germline mutant mouse model of intestinal neoplasia and cachexia, Apc^Min+/− model, which is also known to induce gut barrier dysfunction (PMID: 21914473). Apc^Min+/− mice are reported to start the development of tumors at approximately 4 weeks of age. Twenty female Apc^Min+/− mice (JAX Stock No: 002020) were enrolled in the study at the age of 10 weeks. Randomization was done based on the body weight, and animals were divided into four treatment groups (5 mice/group). […] Celecoxib is a COX-2 inhibitor, and was used as a positive control because it has been reported to prevent and regress adenomas in APC model (PMID: 11016626). Mice were sacrificed 2 hours after the last dose of total 10 weeks of dosing (71 days), at the age of 20 weeks. After dosing started, the animals were checked daily for morbidity and mortality.

[9] = tested on: 10 cell lines from a variety of tumor types; experiment: 2D culture viability (counterpart of soft agar assay); assay type: cell-based
Experimental: as §1, §3

[10] = 3D soft agar colonies, read-out: 3D IC50
[11] = Homo sapiens, HCT-116, HCT116, Colorectal

`COc1cc(N2CCN(C)CC2)c(Cl)cc1Nc1ncc(Cl)c(Nc2cccnc2N2CCCC2=O)n1` [compound of structural formula I, 1-(3-((5-chloro-2-((5-chloro-2-methoxy-4-(4-methylpiperazin-1-yl)phenyl)amino)pyrimidin-4-yl)amino)pyridin-2-yl)pyrrolidin-2-one] gave an IC50 (LU0743B organoid (Lung)) of 2.43 µM, an IC50 [1] of 2.18 µM and an IC50 [2] of 3.25 µM. The IC50 (10 PDXO models) was < 10 µM, the IC50 [3] was 0.4 µM and the IC50 [4] was 10.1 µM. It also gave an IC50 [5] of 0.51 µM, an IC50 (LU6800B organoid (Lung)) of 0.4 µM and an IC50 (LU11873B organoid (Lung)) of 0.44 µM. The IC50 (LU11693B organoid (Lung)) was 2.12 µM, the IC50 [6] was 1.24 µM and the “shift in IC50, 3D colonies vs 2D” value (HT29 cells; HT29) was “approximately 32 fold”. For the same compound, the IC50 (HT29 cells; 2D culture, read-out: 2D IC50) was 7.68 µM, the IC50 (HT29 cells; [10]) was 0.24 µM and the “shift in IC50, 3D colonies vs 2D” value (A549 cells; A549) was “approximately 40 fold”. For the same compound, the IC50 (A549 cells; 2D culture, read-out: 2D IC50) was > 10 µM, the IC50 (A549 cells; [10]) was 0.25 µM and the “shift in IC50, 3D colonies vs 2D” value (DU145 cells; DU145) was “approximately 19 fold”. For the same compound, the IC50 (DU145 cells; 2D culture, read-out: 2D IC50) was 2.7 µM, the IC50 (DU145 cells; [10]) was 0.14 µM and the IC50 ([7]; Homo sapiens, A2058, A2058, Melanoma) was 0.98 µM. It also gave an IC50 ([7]; Homo sapiens, C-33-A, C33A, Cervical) of 0.9 µM, an IC50 [7, 11] of 0.75 µM and an IC50 ([7]; Homo sapiens, LoVo, Colorectal) of 2.9 µM. For the same compound, the IC50 ([7]; Homo sapiens, SW948, SW948, Colorectal) was 0.73 µM, the IC50 ([7]; PC3, Prostate) was 0.87 µM and the IC50 ([7]; T84, Colorectal) was 1.5 µM. The “sensitivity of 3D colonies compared to 2D counterparts (in words)” value ([7]; most of the cell lines tested) was “increased sensitivity”, the “Related substance at RRT 0.84” value [8] was <0.05% and the “Related substance at RRT 0.89” value [8] was 0.15%. The “Related substance at RRT 0.97” value [8] was 0.15%, the “Related substance at RRT 1.08” value [8] was 0.11% and the “Related substance at RRT 1.13” value [8] was <0.05%. The “Related substance at RRT 1.20” value [8] was 0.09%, the “Related substance at RRT 1.21” value [8] was 0.05% and the “Related substance at RRT 1.24” value [8] was 0.08%. For the same compound, the “Related substance at RRT 1.29” value [8] was <0.05%, the “Related substance at RRT 1.33” value [8] was <0.05% and the “Total Impurities” value [8] was 0.63%. The “reduction of spleen size compared to vehicle” value (Apc^Min+/− mice; 10 mg/kg) was “approximately 52%”, the “reduction of spleen size compared to vehicle” value (Apc^Min+/− mice; 25 mg/kg) was “approximately 40%” and the “decrease in number of polyps in the intestine compared to vehicle” value (Apc^Min+/− mice; 25 mg/kg once daily oral gavage, 10 weeks, female Apc^Min+/− mice) was “approximately 49%”. The mean spleen weight (Apc^Min+/− mice; 25 mpk) was 191 mg, the “polyp growth” value (Apc^Min+/− mice; FIG. 8B) was “inhibits polyp growth” and the “splenomegaly and inflammation” value (Apc^Min+/− mice; FIG. 8C) was “attenuated”. The IC50 [9, 11] was 3.36 µM, the IC50 ([9]; Homo sapiens, Lovo, Colorectal) was 3.58 µM and the IC50 ([9]; PC3, Prostate) was > 10 µM.
